target: SARS-CoV PLpro (Severe acute respiratory syndrome coronavirus, UniProt P0C6U8); experiment: biochemical; type: biochemical

SMILES	IC50 [µM]	Kinetic mode
COc1cc(C2CC(=O)c3c(cc(O)c(C/C=C(\C)CCC=C(C)C)c3O)O2)cc(OC)c1O (centres unmarked) [Compound 12, 6-geranyl-4′,5,7-trihydroxy-3′,5′-dimethoxyflavanone]	13.9 ± 0.18	–
COc1cc([C@@H]2CC(=O)c3c(cc4c(c3O)CCC(C)(CCCC(C)(C)O)O4)O2)cc(OC)c1O (stereo partly drawn) [Compound 4, (2S)-5-hydroxy-2-(4-hydroxy-3,5-dimethoxyphenyl)-8-(4-hydroxy-4-methylpentyl)-8-methyl-2,3,7,8-tetrahydropyrano[3,2-g]chromen-4(6H)-one]	–	Mixed (13.0)
COc1cc([C@@H]2CC(=O)c3c(cc4c(c3O)CCC(C)(CCCC(C)(C)O)O4)O2)cc(O)c1OC (stereo partly drawn) [Compound 3, (2S)-5-hydroxy-2-(5-hydroxy-3,4-dimethoxyphenyl)-8-(4-hydroxy-4-methylpentyl)-8-methyl-2,3,7,8-tetrahydropyrano[3,2-g]chromen-4(6H)-one]	–	Mixed (5.0)
COc1cc([C@@H]2CC(=O)c3c(cc(O)c(C/C=C(\C)CCC=C(C)C)c3O)O2)ccc1O [Compound 8, 3′-O-methyldiplacone]	–	Mixed (7.1)
CC(C)(O)CCCC1(C)CCc2c(cc3c(c2O)C(=O)C[C@@H](c2ccc(O)c(O)c2)O3)O1 (stereo partly drawn) [Compound 1, (2S)-2-(3,4-dihydroxyphenyl)-5-hydroxy-8-(4-hydroxy-4-methylpentyl)-8-methyl-2,3,7,8-tetrahydropyrano[3,2-g]chromen-4(6H)-one]	–	Mixed (4.8)
COc1cc([C@H]2Oc3cc4c(c(O)c3C(=O)[C@@H]2O)CCC(C)(CCCC(C)(C)O)O4)ccc1O (stereo partly drawn) [Compound 5, (2R,3R)-3,5-dihydroxy-2-(4-hydroxy-3-methoxyphenyl)-8-(4-hydroxy-4-methylpentyl)-8-methyl-2,3,7,8-tetrahydropyrano[3,2-g]chromen-4(6H)-one]	–	Mixed (3.7)
COc1ccc([C@H]2Oc3cc(O)c(C/C=C(\C)CCC=C(C)C)c(O)c3C(=O)[C@@H]2O)cc1O [Compound 7, 4′-O-methyldiplacol]	–	Mixed (6.3)
COc1cc([C@H]2Oc3cc(O)c(C/C=C(\C)CCC=C(C)C)c(O)c3C(=O)[C@@H]2O)ccc1O [Compound 6, 3′-O-methyldiplacol]	–	Mixed (6.6)

Reference: PMC7126831 (Bioorganic & Medicinal Chemistry, 2013)
